Results taken from patent US20230416299A1, “COMPOUND AND METHOD FOR THE TREATMENT AND DIAGNOSIS OF NEURODEGENERATIVE CONDITIONS” (Swansea University, priority 2013, published 2023).

Columns and labels:
Lxrβ-LBD = target: T1, Lxrβ-LBD (Homo sapiens, UniProt P55055); test: LanthaScreen TR-FRET Lxrβ coactivator assay; assay type: binding
T1 construct: purchased Invitrogen
T1 sequence (P55055 222-460 limits assumed): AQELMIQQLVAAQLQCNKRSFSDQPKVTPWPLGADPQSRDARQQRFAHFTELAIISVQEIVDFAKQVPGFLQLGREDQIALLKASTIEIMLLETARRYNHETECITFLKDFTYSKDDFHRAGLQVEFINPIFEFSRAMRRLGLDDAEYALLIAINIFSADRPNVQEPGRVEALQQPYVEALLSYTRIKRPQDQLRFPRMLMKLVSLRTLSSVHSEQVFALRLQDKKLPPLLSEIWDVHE
Description: Lxrβ Ligand Binding Assay. For Lxrβ ligand binding activity measurement, the applicants used the LANTHASCREEN™ TR-FRET Lxrβ Coactivator Assay (Invitrogen). The assay uses a terbium (Tb)-labeled anti-GST antibody, a fluorescein-labeled coactivator peptide and the Lxrβ-LBD tagged with glutathione-S-transferase (GST). Binding of the agonist/ligand to Lxrβ-LBD causes a conformational change that result in an increase in the affinity of the Lxrβ for the coactivator peptide. The close proximity of the fluorescently labeled coactivator peptide to the Tb-labeled antibody causes an increase in the TR-FRET signal intensity. The TR-FRET ratio of 520/495 was calculated using a Victor multi label reader with an excitation wavelength of 340 nm and emission wavelengths of 520 nm and 495 nm. The activational capacity of potential ligands was tested in a […] polypropylene plate, following the manufacturer's protocol.

[1] = system: Islet1+ oculomotor neurons; test: In utero injection into the cerebral aqueduct of E11.5 mice, analysis at E13.5; assay type: in vivo, mouse
Description: Animals for in-utero injections and tissue preparation. Female wild-type CD-1 mice (25-35 g; Charles River Breeding Laboratories) were housed, bred, and treated according to the guidelines of the European Communities Council (directive 86/609/EEC) and the Society for Neuroscience (www.sfr.org), and all experiments were approved by the local ethical committee. Ethical approval for CD-I mice experimentation was granted by Stockholm Norra Djurforsoksetisks Namnd number N1 54/06, N273/11 and N370/09. For embryo analyses, wild type CD-I mice were mated overnight, and noon of the day the plug was considered E0.5. Embryos were dissected out of the uterine horns in ice-cold PBS, fixed in 4% paraformaldehyde (PFA) for 4 h to overnight, cryoprotected in 15-30% sucrose, frozen in Tissue-Tek Optimum Cutting Temperature (OCT) compound (Sakura Fine-Tek) on dry ice, and stored at −80° C. until use. Serial coronal 14-μπι sections of the brain were obtained on a cryostat.
Immunohistochemical analysis of sections. Ten sets of 14 μπι serial coronal sections were cut on a cryostat. No. 1 and 6 sets were subjected to immunohistochemistry. Sections were pre-incubated for 1 h in blocking solution followed by incubation at 4° C. overnight with following primary antibodies: anti-TH (1:750, Pel-Freeze), anti-Islet-1 (1:100; Developmental Studies Hybridoma Bank), anti-cleaved caspase-3 (Aspl175) (1:100; Cell Signaling Technology). After washing, slides were incubated for 1-2 h at room temperature with the appropriate fluorophore-conjugated (Cy2-, Cy3- and Cy5-, 1:300, Jackson Laboratories; Alexa488-, 555-, and 647-, 1:1000, Invitrogen) secondary antibodies. Confocal pictures were taken with a Zeiss LSM5 Exciter or LSM700 microscope.
In utero intraventricular injections. E11.5 pregnant females were deeply anesthetized using Isofluorane (ISOFLO®, Abbott Labs) and the uterine horns were accessed through an abdominal incision. 1 μL of the different cholestenoic acids studied (5 mM) or vehicle solution (isopropanol, 50% v/v) was injected into the cerebral aqueduct. The uterine horns were replaced into the abdominal cavity, which was then closed with sutures. Embryos were analyzed 48 h later.

[2] = 1 μL of 5 mM injected at E11.5, analysed at E13.5

Structure (SMILES) | TR-FRET induction (coactivator recruitment to Lxrβ-LBD) (Lxrβ-LBD; dose response) | Number of Islet+ oculomotor neurons in vivo [1, 2] | Number of TH+ neurons in vivo [1, 2] | Effect of co-injection on the 3β-HCA-induced reduction of Islet+ oculomotor neurons ([1]; co-injected with 3β-HCA) | Competitor concentration with significant difference (p<0.05) from 10 μM 3β,7α-diHCA alone in TR-FRET Lxrβ coactivator assay (Lxrβ-LBD; added to 10 μM 3β,7α-diHCA) [µM] | Competition with 3β,7α-diHCA in TR-FRET Lxrβ coactivator assay (Lxrβ-LBD; increasing concentrations with 3β,7α-diHCA at its most potent concentration)
CC(CCC[C@@H](C)[C@H]1CC[C@H]2[C@@H]3[C@H](O)C=C4C[C@@H](O)CC[C@]4(C)[C@H]3CC[C@]12C)C(=O)O (stereo partly drawn) [3β,7α-diHCA, 3β,7α-dihydroxycholest-5-en-26-oic acid] | induced FRET in a dose dependent manner to a higher degree than the other acids | an increase in the number of Islet+ oculomotor neurons | not of TH+ neurons | this effect was eliminated by co-injection of 3β,7α-diHCA | – | –
CC(CCC[C@@H](C)[C@H]1CC[C@H]2[C@@H]3CC=C4C[C@@H](O)CC[C@]4(C)[C@H]3CC[C@]12C)C(=O)O (stereo partly drawn) [3β-HCA, 3β-hydroxycholest-5-en-26-oic acid] | – | the number of Islet+ oculomotor neurons was reduced | – | – | ≥ 5 | the effect of 3β,7α-diHCA was reduced to that of the latter acids
